From ChEMBL document CHEMBL1201862, “PubChem BioAssay data set” (2004)
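Interpolation was linear, between the two tested concentrations surrounding the appropriate level; five concentrations were tested over 48 hours in 96-well plates. GI50 = concentration required for 50% inhibition of growth.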 The source made the active and inactive calls. Cut-off read from the data, not from the text of the source: active = GI50 up to about 1.1 µM and inactive = higher.

How the values were obtained:
Experiment in all cases: NCI-60 cell line screen, 48 h
COLO 205 = test system: COLO 205
KM12 = test system: KM12
SF-295 = test system: SF-295
PC-3 = test system: PC-3
SN12C = test system: SN12C
SK-MEL-28 = test system: SK-MEL-28
UO-31 = test system: UO-31
786-0 = test system: 786-0
TK-10 = test system: TK-10
A549 = test system: A549
SK-MEL-5 = test system: SK-MEL-5
UACC-62 = test system: UACC-62
NCI/ADR-RES = test system: NCI/ADR-RES
SW-620 = test system: SW-620
RPMI-8226 = test system: RPMI-8226
MDA-N = test system: MDA-N
MCF7 = test system: MCF7
CCRF-CEM = test system: CCRF-CEM
EKVX = test system: EKVX
OVCAR-4 = test system: OVCAR-4
HOP-92 = test system: HOP-92
SK-MEL-2 = test system: SK-MEL-2
MDA-MB-231 = test system: MDA-MB-231
OVCAR-8 = test system: OVCAR-8
T47D = test system: T47D
HOP-62 = test system: HOP-62
SF-539 = test system: SF-539
SK-OV-3 = test system: SK-OV-3
Hs-578T = test system: Hs-578T
K562 = test system: K562
HCT-116 = test system: HCT-116
A498 = test system: A498
MDA-MB-435 = test system: MDA-MB-435
U-251 = test system: U-251
M14 = test system: M14
HCC 2998 = test system: HCC 2998
NCI-H460 = test system: NCI-H460
HT-29 = test system: HT-29
NCI-H23 = test system: NCI-H23
MOLT-4 = test system: MOLT-4
RXF 393 = test system: RXF 393
CAKI-1 = test system: CAKI-1
UACC-257 = test system: UACC-257
DU-145 = test system: DU-145
OVCAR-3 = test system: OVCAR-3
SNB-75 = test system: SNB-75
OVCAR-5 = test system: OVCAR-5
LOX IMVI = test system: LOX IMVI
IGROV-1 = test system: IGROV-1
HL-60 = test system: HL-60
SF-268 = test system: SF-268
Malme-3M = test system: Malme-3M
NCI-H522 = test system: NCI-H522
ACHN = test system: ACHN
SNB-19 = test system: SNB-19
BT-549 = test system: BT-549
HCT-15 = test system: HCT-15
NCI-H226 = test system: NCI-H226

Measured: GI50

c1ccc2c(c1)CCN(C1=NCCO1)C2
> 10 µM: HCT-15
inactive: COLO 205 > 10 µM | KM12 > 10 µM | SF-295 > 10 µM | PC-3 > 10 µM | SN12C > 10 µM | SK-MEL-28 > 10 µM | UO-31 > 10 µM | 786-0 > 10 µM | TK-10 > 10 µM | A549 > 10 µM | SK-MEL-5 > 10 µM | UACC-62 > 10 µM | NCI/ADR-RES > 10 µM | SW-620 > 10 µM | RPMI-8226 > 10 µM | MDA-N > 10 µM | MCF7 > 10 µM | CCRF-CEM > 10 µM | EKVX > 10 µM | OVCAR-4 > 10 µM | HOP-92 > 10 µM | SK-MEL-2 > 10 µM | MDA-MB-231 > 10 µM | OVCAR-8 > 10 µM | T47D > 10 µM | HOP-62 > 10 µM | SF-539 > 10 µM | SK-OV-3 > 10 µM | Hs-578T > 10 µM | K562 > 10 µM | HCT-116 > 10 µM | A498 > 10 µM | MDA-MB-435 > 10 µM | U-251 > 10 µM | M14 > 10 µM | HCC 2998 > 10 µM | NCI-H460 > 10 µM | HT-29 > 10 µM | NCI-H23 > 10 µM | MOLT-4 > 10 µM | RXF 393 > 10 µM | CAKI-1 > 10 µM | UACC-257 > 10 µM | DU-145 > 10 µM | OVCAR-3 > 10 µM | SNB-75 > 10 µM | OVCAR-5 > 10 µM | LOX IMVI > 10 µM | IGROV-1 > 10 µM | HL-60 > 10 µM | SF-268 > 10 µM | Malme-3M > 10 µM | NCI-H522 > 10 µM | ACHN > 10 µM | SNB-19 > 10 µM | BT-549 > 10 µM | NCI-H226 > 10 µM
